Here are results for three molecules from patent US20100022556A1, “Therapeutic combinations comprising a long acting dihydropyridine calcium-channel blocker and a statin” (CHIESI FARMACEUTICI S.P.A., priority 2005, published 2010).

Assay [1] can be described thus: Blood pressure in hypertensive, hypercholesterolemic patients (3x3 cross-over trial). It is filed as in vivo, human. The settings on record: manidipine 20 mg, simvastatin 40 mg or fixed combination, end of 12 week treatment. How it is done:
(§1) The aim of this study was to evaluate the effect of the manidipine-simvastatin combination on plasma tissue plasminogen activator (t-PA) and inhibitor (PAI-1) activity, on plasma intercellular adhesion molecule type-1 (ICAM-1) and on serum C-reactive protein (CRP) in hypertensive, hypercholesterolemic patients.
(§2) After 4 week placebo run-in period, 30 hypertensive hypercholesterolemic patients were randomized to a manidipine 20 mg or simvastatin 40 mg or a manidipine-simvastatin fixed combination treatment, according to 3×3 cross-over design; each treatment had 12 week duration.
(§3) The last day of the placebo run-in period and of each treatment period blood pressure was measured and a venous blood sample was taken (at the same hour in the morning) to evaluate plasma t-PA and PAI-1 activity, TC plasma, ICAM-1 and CRP.

Assay [2] concerns plasma tissue plasminogen activator (t-PA). The assay can be described thus: Plasma t-PA activity in hypertensive, hypercholesterolemic patients. It is filed as in vivo, human. The settings on record: for t-PA: plasma activity, patients, end of 12 week treatment. How it is done: as §1, §2, §3
The subject of the next assay is inhibitor (PAI-1). The assay can be described thus: Plasma PAI-1 activity in hypertensive, hypercholesterolemic patients. The assay is classed as in vivo, human. As to conditions: for change in PAI-1 activity vs placebo: 12 week treatment; for PAI-1: plasma activity, patients, end of 12 week treatment. How it is done: as §1, §2, §3
Another assay concerns total cholesterol. The assay can be described thus: Total cholesterol (TC) in hypertensive, hypercholesterolemic patients. It is filed as in vivo, human. The settings on record: for TC: patients, end of 12 week treatment. How it is done:
as §3

Assay [3] has as its system plasma intercellular adhesion molecule type-1 (ICAM-1). The assay can be described thus: Plasma ICAM-1 in hypertensive, hypercholesterolemic patients. It is filed as in vivo, human. The settings on record: for change in ICAM-1 mean value vs placebo: 12 week treatment; for ICAM-1: plasma, patients, end of 12 week treatment. How it is done:
as §1, §2, §3

For assay [4], the system named is serum C-reactive protein (CRP). The experiment in a line: Serum CRP in hypertensive, hypercholesterolemic patients. As to conditions: end of 12 week treatment. The assay is classed as in vivo, human. How it is done:
as §1, §2, §3

The subject of assay [5] is perfused rat heart preparations submitted to ischemia-reperfusion. The assay can be described thus: Myocardial ischemia-reperfusion damage, perfused hearts from orally treated rats. The assay is classed as in vivo, Male Wistar rats. The settings on record: oral gavage once a day for 5 days; manidipine 1 and 3 mg/kg, simvastatin 1 mg/kg, alone or combined. How it is done: The hearts were excised from rats orally treated for 5 consecutive days with manidipine and simvastatin alone or in combination. […] Data are means±SEM of 8 hearts per group. *P<0.05, **P<0.01, ***P<0.001 vs control; #P<0.01 vs simvastatin alone.
The aim of this study was to evaluate the protective effects of the manidipine-simvastatin combination against myocardial ischemia-reperfusion damage in the rat.
The study was performed according to a method described previously (Rossoni G et al Pharmacol Exp Ther. 2003 307(2), 633-9).
Male Wistar rats were randomly divided into six groups (n=6-8 rats per group). Manidipine (1 mg/kg and 3 mg/kg) simvastatin (1 mg/kg) were administered alone or in combination by oral gavage once a day for five consecutive days.
The following parameters were determined:
i) the left ventricular end-diastolic pressure (LVEDP) and the left ventricular developed pressure (LVDevP; peak left ventricular systolic pressure minus LVEDP);
ii) the activities of creatine kinase (CK) and lactate dehydrogenase (LDH) in the heart perfusate.
The data were expressed as mean±S.E.M (standard error of the mean).

Assay [6] relates to ischemic-reperfused myocardium. The settings on record: isolated rat hearts; simvastatin: normocholesterolemic rat hearts; cited from earlier work.
Where [7] appears, read: change vs placebo, 12 week treatment.

The structures appear in SMILES notation.

Consider `COC(=O)C1=C(C)NC(C)=C(C(=O)OCCN2CCN(C(c3ccccc3)c3ccccc3)CC2)C1c1cccc([N+](=O)[O-])c1` (racemic) [Manidipine, (±)-1,4-dihydro-2,6-dimethyl-4-(3-nitrophenyl)-3,5-pyridinedicarboxylic acid 2-[4-(diphenylmethyl)-1-piperazinyl]ethyl methyl ester], for which, in assay [1], the DBP is given as 84.1 ± 4.8 mmHg and the SBP is given as 140.5 ± 10.7 mmHg. Moreover, the “change in t-PA activity vs placebo” value in assay [2] (setting [7]) is recorded as “+0.22 U/ml”. In addition, the t-PA in assay [2] worked out at 0.71 ± 0.19 U/ml. In addition, in the assay on inhibitor (PAI-1), the “change in PAI-1 activity vs placebo” value is listed as “did not affect” and the PAI-1 was found to be 24.9 ± 12.6 U/ml. Further, the TC in the assay with total cholesterol was determined as 253.8 ± 29.6 mg/dL. Further, in assay [3], the “change in ICAM-1 mean value vs placebo” value was -17.6 ng/mL and the ICAM-1 worked out at 220.2 ± 29.8 ng/mL. Besides, the CRP in assay [4] turned out to be 0.34 ± 0.20 mg/dL. In addition, in assay [5], the “rise in LVEDP during ischemia and reperfusion” value is on record as “significantly reduced according to the dose used”. For the same molecule, the “protection of ischemic-reperfused myocardium” value in assay [6] is “relevant cardioprotection”.
With `CCC(C)(C)C(=O)O[C@H]1C[C@@H](C)C=C2C=C[C@H](C)[C@H](CC[C@@H]3C[C@@H](O)CC(=O)O3)[C@H]21` [Simvastatin, simvastatin], in assay [1], the DBP is recorded as 98.2 ± 6.2 mmHg and the SBP stood at 155.4 ± 11.9 mmHg. Also, the t-PA in assay [2] was 0.51 ± 0.14 U/ml. In addition, in the assay with inhibitor (PAI-1), the “change in PAI-1 activity vs placebo” value is −8.5 U/ml and the PAI-1 is 16.1 ± 7.3 U/ml. Also, in the assay on total cholesterol (setting [7]), the “change in total cholesterol mean value vs placebo” value was -52.7 mg/dL. Besides, the TC with total cholesterol is 202.2 ± 26.4 mg/dL. In addition, in assay [3], the “change in ICAM-1 mean value vs placebo” value is -30.4 ng/mL and the ICAM-1 was determined as 207.4 ± 26 ng/mL. Besides, the CRP in assay [4] was 0.16 ± 0.12 mg/dL.
Turning to `COC(=O)C1=C(C)NC(C)=C(C(=O)OC2CCCN(Cc3ccccc3)C2)C1c1cccc([N+](=O)[O-])c1` (centres unmarked) [benidipine], the “protection of ischemic-reperfused myocardium” value in assay [6] is reported as “relevant cardioprotection”.
